From ChEMBL document CHEMBL4507324 (2021)

Experiments:
Conditions in all cases: Compound concentration 100.0 nM
[1] = biological target: BDNF/NT-3 growth factors receptor (Homo sapiens) (UniProt Q16620)
[2] = biological target: Serine/threonine-protein kinase PAK 3 (Homo sapiens) (UniProt O75914)
[3] = biological target: Myosin light chain kinase 2, skeletal/cardiac muscle (Homo sapiens) (UniProt Q9H1R3)
[4] = biological target: cGMP-dependent protein kinase 2 (Homo sapiens) (UniProt Q13237)
[5] = biological target: Calcium/calmodulin-dependent protein kinase type 1D (Homo sapiens) (UniProt Q8IU85)
[6] = biological target: Cyclin-dependent kinase 14 (Homo sapiens) (UniProt O94921)
[7] = biological target: Calcium/calmodulin-dependent protein kinase type II subunit gamma (Homo sapiens) (UniProt Q13555)
[8] = biological target: SRSF protein kinase 1 (Homo sapiens) (UniProt Q96SB4)
[9] = biological target: Tyrosine-protein kinase Tec (Homo sapiens) (UniProt P42680)
[10] = biological target: Peripheral plasma membrane protein CASK (Homo sapiens) (UniProt O14936)
[11] = biological target: Vascular endothelial growth factor receptor 2 (Homo sapiens) (UniProt P35968)
[12] = system: Epidermal growth factor receptor (Homo sapiens), P00533 [G719S]
[13] = biological target: Death-associated protein kinase 2 (Homo sapiens) (UniProt Q9UIK4)
[14] = biological target: Serine/threonine-protein kinase SIK2 (Homo sapiens) (UniProt Q9H0K1)
[15] = biological target: Phosphatidylinositol 4,5-bisphosphate 3-kinase catalytic subunit beta isoform (Homo sapiens) (UniProt P42338)
[16] = biological target: 3-phosphoinositide-dependent protein kinase 1 (Homo sapiens) (UniProt O15530)
[17] = system: Mast/stem cell growth factor receptor Kit (Homo sapiens), P10721 [V559D,T670I]
[18] = biological target: Protein kinase C eta type (Homo sapiens) (UniProt P24723)
[19] = biological target: Serine/threonine-protein kinase NIM1 (Homo sapiens) (UniProt Q8IY84)
[20] = biological target: Serine/threonine-protein kinase DCLK3 (Homo sapiens) (UniProt Q9C098)
[21] = biological target: Serine/threonine-protein kinase ULK1 (Homo sapiens) (UniProt O75385)
[22] = biological target: Angiopoietin-1 receptor (Homo sapiens) (UniProt Q02763)
[23] = biological target: Tyrosine-protein kinase Fyn (Homo sapiens) (UniProt P06241)
[24] = biological target: Serine/threonine-protein kinase 32B (Homo sapiens) (UniProt Q9NY57)
[25] = biological target: Cyclin-dependent kinase 4 (Homo sapiens) (UniProt P11802)
[26] = biological target: Cyclin-dependent kinase 7 (Homo sapiens) (UniProt P50613)
[27] = system: Tyrosine-protein kinase ABL1 (Homo sapiens), P00519 [F317I]
[28] = biological target: Tyrosine-protein kinase Mer (Homo sapiens) (UniProt Q12866)
[29] = biological target: Serine/threonine-protein kinase Chk1 (Homo sapiens) (UniProt O14757)
[30] = biological target: Serine/threonine-protein kinase TAO1 (Homo sapiens) (UniProt Q7L7X3)
[31] = biological target: Ephrin type-A receptor 4 (Homo sapiens) (UniProt P54764)
[32] = biological target: Serine/threonine-protein kinase DCLK2 (Homo sapiens) (UniProt Q8N568)
[33] = biological target: Leucine-rich repeat serine/threonine-protein kinase 2 (Homo sapiens) (UniProt Q5S007)
[34] = biological target: Non-receptor tyrosine-protein kinase TYK2 (Homo sapiens) (UniProt P29597)
[35] = system: Receptor-type tyrosine-protein kinase FLT3 (Homo sapiens), P36888 [UNDEFINED MUTATION]
[36] = biological target: Serine/threonine-protein kinase Sgk1 (Homo sapiens) (UniProt O00141)
[37] = biological target: Ribosomal protein S6 kinase alpha-3 (Homo sapiens) (UniProt P51812)
[38] = biological target: Ribosomal protein S6 kinase alpha-5 (Homo sapiens) (UniProt O75582)
[39] = biological target: Calcium/calmodulin-dependent protein kinase type 1B (Homo sapiens) (UniProt Q6P2M8)
[40] = biological target: Ribosomal protein S6 kinase alpha-2 (Homo sapiens) (UniProt Q15349)
[41] = biological target: Serine/threonine-protein kinase PknB (Mycobacterium tuberculosis) (UniProt P9WI81)
[42] = biological target: Casein kinase I isoform alpha (Homo sapiens) (UniProt P48729)
[43] = biological target: Receptor tyrosine-protein kinase erbB-4 (Homo sapiens) (UniProt Q15303)
[44] = biological target: Serine/threonine-protein kinase PLK3 (Homo sapiens) (UniProt Q9H4B4)
[45] = biological target: Serine/threonine-protein kinase 25 (Homo sapiens) (UniProt O00506)

Measured: residual activity

Sequence of Cyclin-dependent kinase 4 (Homo sapiens) (P11802 whole entry): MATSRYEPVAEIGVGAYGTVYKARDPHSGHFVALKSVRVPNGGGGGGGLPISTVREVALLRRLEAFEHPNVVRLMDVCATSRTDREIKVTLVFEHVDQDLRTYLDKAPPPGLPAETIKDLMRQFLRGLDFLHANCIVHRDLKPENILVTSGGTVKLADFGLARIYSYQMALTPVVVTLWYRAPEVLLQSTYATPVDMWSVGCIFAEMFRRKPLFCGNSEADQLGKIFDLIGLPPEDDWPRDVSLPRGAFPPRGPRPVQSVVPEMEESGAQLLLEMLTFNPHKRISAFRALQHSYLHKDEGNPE
Sequence of Cyclin-dependent kinase 14 (Homo sapiens) (O94921 whole entry): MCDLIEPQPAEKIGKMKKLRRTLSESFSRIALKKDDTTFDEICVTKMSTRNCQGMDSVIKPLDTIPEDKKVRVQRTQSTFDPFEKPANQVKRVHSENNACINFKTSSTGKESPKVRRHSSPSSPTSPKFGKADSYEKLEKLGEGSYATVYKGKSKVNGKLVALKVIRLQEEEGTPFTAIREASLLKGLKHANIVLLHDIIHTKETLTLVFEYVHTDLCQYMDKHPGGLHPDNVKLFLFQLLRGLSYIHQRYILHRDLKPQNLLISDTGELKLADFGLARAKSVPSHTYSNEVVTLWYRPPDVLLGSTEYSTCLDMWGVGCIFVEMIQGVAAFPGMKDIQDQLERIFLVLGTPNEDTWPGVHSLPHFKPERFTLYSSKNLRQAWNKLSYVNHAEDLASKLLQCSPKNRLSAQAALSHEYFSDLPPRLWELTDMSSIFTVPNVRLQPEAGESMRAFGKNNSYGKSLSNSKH
Sequence of Tyrosine-protein kinase ABL1 (Homo sapiens), P00519 [F317I] (P00519 whole entry F317I): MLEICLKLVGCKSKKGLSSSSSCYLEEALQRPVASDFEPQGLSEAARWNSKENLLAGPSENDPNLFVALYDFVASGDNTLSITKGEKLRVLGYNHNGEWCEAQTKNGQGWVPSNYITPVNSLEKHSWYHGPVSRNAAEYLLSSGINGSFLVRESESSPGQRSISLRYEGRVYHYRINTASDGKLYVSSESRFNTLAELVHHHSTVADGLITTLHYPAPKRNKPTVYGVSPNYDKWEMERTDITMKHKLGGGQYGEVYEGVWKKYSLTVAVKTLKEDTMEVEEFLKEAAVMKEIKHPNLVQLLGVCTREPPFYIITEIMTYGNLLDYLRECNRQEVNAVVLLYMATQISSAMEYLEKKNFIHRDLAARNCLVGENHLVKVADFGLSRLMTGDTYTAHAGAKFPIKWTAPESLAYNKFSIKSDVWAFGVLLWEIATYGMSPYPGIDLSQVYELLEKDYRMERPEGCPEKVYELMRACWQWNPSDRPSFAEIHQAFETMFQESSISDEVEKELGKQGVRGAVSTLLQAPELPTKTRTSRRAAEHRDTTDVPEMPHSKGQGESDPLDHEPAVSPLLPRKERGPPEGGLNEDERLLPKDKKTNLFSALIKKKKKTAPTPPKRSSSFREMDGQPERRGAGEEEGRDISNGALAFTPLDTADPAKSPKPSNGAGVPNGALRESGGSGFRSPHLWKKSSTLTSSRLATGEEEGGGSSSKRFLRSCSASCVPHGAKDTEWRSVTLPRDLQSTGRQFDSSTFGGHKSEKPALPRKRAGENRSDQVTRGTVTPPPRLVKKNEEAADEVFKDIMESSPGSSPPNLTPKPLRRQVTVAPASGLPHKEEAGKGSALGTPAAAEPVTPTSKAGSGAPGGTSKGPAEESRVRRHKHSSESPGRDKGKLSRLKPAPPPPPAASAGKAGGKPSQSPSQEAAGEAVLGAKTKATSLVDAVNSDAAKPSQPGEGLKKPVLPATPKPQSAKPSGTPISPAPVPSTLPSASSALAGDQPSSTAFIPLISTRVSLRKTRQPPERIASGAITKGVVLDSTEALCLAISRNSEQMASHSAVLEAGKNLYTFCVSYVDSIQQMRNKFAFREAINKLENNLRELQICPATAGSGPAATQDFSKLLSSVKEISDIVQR
Sequence of Serine/threonine-protein kinase NIM1 (Homo sapiens) (Q8IY84 whole entry): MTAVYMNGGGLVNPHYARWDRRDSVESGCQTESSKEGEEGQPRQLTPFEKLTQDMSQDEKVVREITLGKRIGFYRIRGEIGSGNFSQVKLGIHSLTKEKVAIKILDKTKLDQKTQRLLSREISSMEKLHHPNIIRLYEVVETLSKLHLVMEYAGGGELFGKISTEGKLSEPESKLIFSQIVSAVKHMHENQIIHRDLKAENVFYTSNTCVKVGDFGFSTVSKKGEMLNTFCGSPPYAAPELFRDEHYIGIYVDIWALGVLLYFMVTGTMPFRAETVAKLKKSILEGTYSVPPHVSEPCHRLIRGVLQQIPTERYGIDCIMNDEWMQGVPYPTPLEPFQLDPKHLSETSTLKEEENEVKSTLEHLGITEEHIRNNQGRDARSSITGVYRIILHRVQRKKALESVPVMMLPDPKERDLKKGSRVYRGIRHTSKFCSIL
Sequence of Angiopoietin-1 receptor (Homo sapiens) (Q02763 whole entry): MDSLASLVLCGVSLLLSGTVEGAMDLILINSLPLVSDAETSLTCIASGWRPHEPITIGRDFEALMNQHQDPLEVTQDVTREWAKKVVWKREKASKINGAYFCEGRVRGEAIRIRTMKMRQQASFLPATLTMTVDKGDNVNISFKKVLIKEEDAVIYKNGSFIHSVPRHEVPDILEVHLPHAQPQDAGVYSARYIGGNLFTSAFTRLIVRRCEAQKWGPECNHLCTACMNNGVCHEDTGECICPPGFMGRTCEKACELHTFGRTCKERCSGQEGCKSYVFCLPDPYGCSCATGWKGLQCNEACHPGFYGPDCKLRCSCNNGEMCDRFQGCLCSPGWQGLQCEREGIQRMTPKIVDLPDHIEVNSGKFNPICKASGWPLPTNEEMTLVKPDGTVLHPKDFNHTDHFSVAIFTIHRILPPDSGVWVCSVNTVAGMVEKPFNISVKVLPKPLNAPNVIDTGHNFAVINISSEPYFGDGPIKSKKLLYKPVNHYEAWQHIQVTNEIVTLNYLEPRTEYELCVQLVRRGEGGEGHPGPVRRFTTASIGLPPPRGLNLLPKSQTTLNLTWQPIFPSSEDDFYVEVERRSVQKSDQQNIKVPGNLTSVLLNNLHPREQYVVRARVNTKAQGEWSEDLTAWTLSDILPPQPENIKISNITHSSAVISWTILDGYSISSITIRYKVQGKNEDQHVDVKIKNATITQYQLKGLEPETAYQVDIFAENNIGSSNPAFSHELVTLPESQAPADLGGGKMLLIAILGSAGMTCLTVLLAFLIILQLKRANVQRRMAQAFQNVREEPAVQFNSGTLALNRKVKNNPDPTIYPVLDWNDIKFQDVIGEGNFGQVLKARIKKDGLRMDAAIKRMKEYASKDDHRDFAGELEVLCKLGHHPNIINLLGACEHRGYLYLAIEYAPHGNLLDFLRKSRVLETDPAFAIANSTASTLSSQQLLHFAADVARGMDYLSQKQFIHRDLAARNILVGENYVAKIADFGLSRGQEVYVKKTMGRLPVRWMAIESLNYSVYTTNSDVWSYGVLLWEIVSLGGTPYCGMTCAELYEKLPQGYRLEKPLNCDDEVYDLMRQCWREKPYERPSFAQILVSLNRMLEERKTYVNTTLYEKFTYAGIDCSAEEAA
Sequence of Receptor-type tyrosine-protein kinase FLT3 (Homo sapiens), P36888 [UNDEFINED MUTATION] (P36888 whole entry, looked up, change not shown): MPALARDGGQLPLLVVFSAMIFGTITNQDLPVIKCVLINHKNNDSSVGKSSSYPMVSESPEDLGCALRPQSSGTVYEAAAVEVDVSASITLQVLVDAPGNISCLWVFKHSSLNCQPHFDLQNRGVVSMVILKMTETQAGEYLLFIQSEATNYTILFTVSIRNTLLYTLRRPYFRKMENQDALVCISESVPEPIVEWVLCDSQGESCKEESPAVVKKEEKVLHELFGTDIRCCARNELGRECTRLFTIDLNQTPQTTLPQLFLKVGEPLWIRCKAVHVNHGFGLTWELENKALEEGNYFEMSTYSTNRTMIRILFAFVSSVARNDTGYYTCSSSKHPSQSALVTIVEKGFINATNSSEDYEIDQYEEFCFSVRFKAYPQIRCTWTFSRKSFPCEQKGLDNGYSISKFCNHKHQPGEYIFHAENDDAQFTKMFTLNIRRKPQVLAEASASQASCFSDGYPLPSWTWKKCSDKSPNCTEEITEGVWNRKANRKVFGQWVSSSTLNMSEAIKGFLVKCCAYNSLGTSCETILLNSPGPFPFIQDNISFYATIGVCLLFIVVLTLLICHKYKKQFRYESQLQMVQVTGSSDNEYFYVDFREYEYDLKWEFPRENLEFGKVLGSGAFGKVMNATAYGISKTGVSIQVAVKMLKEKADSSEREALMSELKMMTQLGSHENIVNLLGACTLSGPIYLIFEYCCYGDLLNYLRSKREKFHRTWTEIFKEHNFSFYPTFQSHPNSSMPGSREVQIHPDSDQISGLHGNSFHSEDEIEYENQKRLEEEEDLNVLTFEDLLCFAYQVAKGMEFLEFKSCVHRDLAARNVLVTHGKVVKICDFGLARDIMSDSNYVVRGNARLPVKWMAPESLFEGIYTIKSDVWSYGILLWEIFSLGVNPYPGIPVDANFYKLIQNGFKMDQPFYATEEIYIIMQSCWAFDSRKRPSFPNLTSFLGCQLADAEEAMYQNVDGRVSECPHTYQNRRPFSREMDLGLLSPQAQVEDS
Sequence of 3-phosphoinositide-dependent protein kinase 1 (Homo sapiens) (O15530 whole entry): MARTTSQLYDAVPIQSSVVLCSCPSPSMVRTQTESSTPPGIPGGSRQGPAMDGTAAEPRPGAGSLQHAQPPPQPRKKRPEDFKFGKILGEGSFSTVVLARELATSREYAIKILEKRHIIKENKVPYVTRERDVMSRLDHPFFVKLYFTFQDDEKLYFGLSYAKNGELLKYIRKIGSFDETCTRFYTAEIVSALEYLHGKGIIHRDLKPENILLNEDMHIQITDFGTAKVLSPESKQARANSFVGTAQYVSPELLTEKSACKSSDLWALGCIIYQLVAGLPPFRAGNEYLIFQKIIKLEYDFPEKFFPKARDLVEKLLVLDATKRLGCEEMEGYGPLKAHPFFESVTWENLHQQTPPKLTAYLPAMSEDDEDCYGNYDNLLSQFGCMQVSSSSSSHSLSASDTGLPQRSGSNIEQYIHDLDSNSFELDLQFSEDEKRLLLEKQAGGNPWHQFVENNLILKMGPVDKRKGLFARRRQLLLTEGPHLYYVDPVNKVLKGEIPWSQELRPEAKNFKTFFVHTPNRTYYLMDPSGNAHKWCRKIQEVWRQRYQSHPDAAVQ

CS(=O)(=O)N1CCCC(NC(=O)[C@H](CCC2CCCCC2)NC(=O)c2ccc(CNc3ncnc4c3nnn4-c3ccccc3)cc2)C1 (stereo not given in full) [SR-301]
inactive: [1] 100% | [2] 100% | [3] 90% | [4] 79% | [5] 97% | [6] 100% | [7] 94% | [8] 78% | [9] 100% | [10] 100% | [11] 85% | [12] 72% | [13] 90% | [14] 86% | [15] 81% | [16] 99% | [17] 100% | [18] 79% | [19] 60% | [20] 87% | [21] 100% | [22] 73% | [23] 56% | [24] 65% | [25] 100% | [26] 100% | [27] 95% | [28] 91% | [29] 100% | [30] 100% | [31] 76% | [32] 95% | [33] 51% | [34] 99% | [35] 100% | [36] 100% | [37] 100% | [38] 81% | [39] 100% | [40] 100% | [41] 90% | [42] 99% | [43] 61% | [44] 100% | [45] 90%

CS(=O)(=O)N1CCCC(NC(=O)[C@H](CCC2CCCCC2)NC(=O)c2ccc(CNC(=O)c3cnc4ccccn34)cc2)C1 (stereo not given in full) [SR-302]
inactive: [1] 87% | [2] 100% | [3] 90% | [4] 82% | [5] 88% | [6] 100% | [7] 86% | [8] 74% | [9] 94% | [10] 100% | [11] 96% | [12] 100% | [13] 94% | [14] 100% | [15] 96% | [16] 100% | [17] 77% | [18] 95% | [19] 64% | [20] 97% | [21] 83% | [22] 92% | [23] 80% | [24] 93% | [25] 100% | [26] 100% | [27] 85% | [28] 94% | [29] 100% | [30] 88% | [31] 98% | [32] 100% | [33] 64% | [34] 84% | [35] 100% | [36] 100% | [37] 100% | [38] 90% | [39] 77% | [40] 94% | [41] 100% | [42] 100% | [43] 95% | [44] 96% | [45] 100%
